Laboratory results published in patent EP4567034A1 (Korea Institute of Science and Technology, priority 2022, dated 2024).

System: blood lymphocyte count
Assay: Decrease in blood lymphocyte count in normal rats after oral administration
Assay type: in vivo, rat
Conditions: 10 mg/kg for the compounds, within 5 hours after drug administration, percentage based on count before administration
Procedure: In order to confirm the effect of administration of the four compounds selected from Experimental Example 1, Compounds 13, 62, 64, and 66, on the decrease in the blood lymphocyte count in rodents in vivo, blood was collected before and after compound administration, and the decrease in the blood lymphocyte count over time was measured using an automatic blood counter, and the results are shown in FIG. 1.
Specifically, 5-week-old male rats (rat, wister, 160-180 g) were acclimated in a temperature- and humidity-controlled breeding room, and the four selected compounds were dissolved in 5% DMSO and 10% Kolliphor HS15 aqueous solution and orally administered at a dose of 10 mg/kg. Blood was collected from the tail vein with a syringe during inhalation anesthesia with 4% isoflurane and transferred to an EDTA-coated tube. The lymphocyte count was measured from the collected blood using an automatic blood counter. As a positive control group, rats administered with fingolimod, a known S1P1 receptor modulator, were used.
As in the positive control group, fingolimod-administered group, it was confirmed that the group administered with the compounds of the Examples within 5 hours after drug administration induced a decrease in the lymphocyte count by 50% or less.

CCCCCCCCc1ccc(CCC(N)(CO)CO)cc1 [fingolimod]
decrease in the lymphocyte count: ≤ 50%
